Data on 26 molecules can be found in patent US7538123B2, “Indole derivative having piperidine ring” (Eisai R & D Management Co., Ltd., priority 2004, dated 2009).

The first assay deals with T1, serotonin 1A receptor (Mus musculus, UniProt Q64264).
T1 construct: into the rectum of CD-1 (ICR) male mice (25-45 g); from tissue; host or cells: living CD-1 (ICR) male mice (whole animal)
T1 sequence (Q64264 1-421): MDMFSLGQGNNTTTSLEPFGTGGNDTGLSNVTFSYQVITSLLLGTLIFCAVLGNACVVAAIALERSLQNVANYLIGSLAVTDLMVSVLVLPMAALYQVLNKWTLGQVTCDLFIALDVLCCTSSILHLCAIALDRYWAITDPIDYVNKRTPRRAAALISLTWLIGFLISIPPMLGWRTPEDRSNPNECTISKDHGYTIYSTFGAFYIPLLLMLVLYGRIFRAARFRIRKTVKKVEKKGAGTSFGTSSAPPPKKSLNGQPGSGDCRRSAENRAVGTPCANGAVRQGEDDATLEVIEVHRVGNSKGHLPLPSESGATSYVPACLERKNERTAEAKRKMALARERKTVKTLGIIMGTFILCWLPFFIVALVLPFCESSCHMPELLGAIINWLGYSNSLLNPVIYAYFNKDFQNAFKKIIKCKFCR
Description: Antagonistic effect on serotonin 1A receptor agonist-induced hypothermia in mouse. The format is in vivo. The following applies: sc. How it is done:
(1) A thermistor probe was inserted at a depth of approximately 2 cm into the rectum of CD-1 (ICR) male mice (25-45 g), so as to measure the body temperature thereof. Body temperature is decreased by subcutaneous administration of serotonin 1A receptor agonist (8-hydroxy-dipropylaminotetralin) 0.5 mg/kg. Since a serotonin 1A antagonist inhibits such action, the antagonistic effect of a test substance to a serotonin 1A receptor was evaluated using the inhibitory effect of the hypothermia as an index. A test substance was administered 15 minutes before the administration of the serotonin 1A agonist. A serotonin 1A partial agonist alone decreases the body temperature, depending on the degree of the agonistic action thereof. In addition, it has a weak antagonistic effect on 8-hydroxy-dipropylaminotetralin-induced hypothermia. (2) Results
As a reminder, the ED50 is the dose that gives a 50% effect, or the effect in half of the subjects. `COc1ccc2c(C)noc2c1CCN1CCC(n2ccc3ccc(C(N)=O)cc32)CC1` [Compound 1, 1-{1-[2-(6-methoxy-3-methylbenz[d]isoxazol-7-yl)ethyl]piperidin-4-yl}-1H-indole-6-carboxamide] displayed an ED50 of 0.3 mg/kg.

The same assay, now with this note: sc, 15 minutes before 8-hydroxy-dipropylaminotetralin 0.5 mg/kg sc, inhibition of hypothermia, CD-1 (ICR) male mice, read-out: ED50.
Turning to `COc1cc2onc(C)c2cc1CCN1CCC(n2ccc3ccc(C(N)=O)cc32)CC1` [Compound 2, 1-{1-[2-(6-methoxy-3-methylbenzo[d]isoxazol-5-yl)ethyl]piperidin-4-yl}-1H-indole-6-carboxamide], the ED50 is 0.4 mg/kg. On the same count and under the same terms, to `COc1ccc2nc(C)oc2c1CCN1CCC(n2ccc3ccc(C(N)=O)cc32)CC1` [Compound 3, 1-{1-[2-(6-methoxy-2-methylbenzoxazol-7-yl)ethyl]piperidin-4-yl}-1H-indole-6-carboxamide] belongs 0.18 mg/kg; to `COc1cc2oc(C)nc2cc1CCN1CCC(n2ccc3ccc(C(N)=O)cc32)CC1` [Compound 4, 1-{1-[2-(6-methoxy-2-methylbenzoxazol-5-yl)ethyl]piperidin-4-yl}-1H-indole-6-carboxamide], 0.1 mg/kg.

For the molecule `CCc1nc2ccc(OC)c(CCN3CCC(n4ccc5ccc(C(N)=O)cc54)CC3)c2o1` [Compound 5], the ED50 amounted to 0.24 mg/kg. On to `CCc1nc2cc(CCN3CCC(n4ccc5ccc(C(N)=O)cc54)CC3)c(OC)cc2o1` [Compound 6, 1-{1-[2-(2-ethyl-6-methoxybenzoxazol-5-yl)ethyl]piperidin-4-yl}-1H-indole-6-carboxamide], for which the ED50 was determined as 0.35 mg/kg. For `COc1ccc2oc(C)nc2c1CCN1CCC(n2ccc3ccc(C(N)=O)cc32)CC1` [Compound 7, 1-{1-[2-(5-methoxy-2-methylbenzoxazol-4-yl)ethyl]piperidin-4-yl}-1H-indole-6-carboxamide], the ED50 stood at 0.38 mg/kg. As for `COc1cc2nc(C)oc2cc1CCN1CCC(n2ccc3ccc(C(N)=O)cc32)CC1` [Compound 8, 1-{1-[2-(5-methoxy-2-methylbenzoxazol-6-yl)ethyl]piperidin-4-yl}-1H-indole-6-carboxamide], the ED50 was 0.07 mg/kg. For `COc1cc2c(cc1CCN1CCC(n3ccc4ccc(C(N)=O)cc43)CC1)C(=O)N(C)CCO2` [Compound 9, 1-{1-[2-(8-methoxy-4-methyl-5-oxo-2,3,4,5-tetrahydrobenzo[f][1,4]oxazepin-7-yl)ethyl]piperidin-4-yl}-1H-indole-6-carboxamide], the ED50 came to 0.3 mg/kg. With `CNC(=O)c1ccc2ccn(C3CCN(CCc4c(OC)ccc5c4OC(C)(C)CC5=O)CC3)c2c1` [Compound 20, 1-{1-[2-(7-methoxy-2,2-dimethyl-4-oxochroman-8-yl)ethyl]piperidin-4-yl}-N-methyl-1H-indole-6-carboxamide], the ED50 was determined as 0.03 mg/kg. As to `COc1ccc2c(c1CCN1CCC(n3ccc4ccc(C(N)=O)cc43)CC1)OC(C)(C)CC2=O` [Compound 22, 1-{1-[2-(7-methoxy-2,2-dimethyl-4-oxochroman-8-yl)ethyl]piperidin-4-yl}-1H-indole-6-carboxamide], the ED50 was determined as 0.1 mg/kg. On the same count and under the same terms, to `COc1cc2c(cc1CCN1CCC(n3ccc4ccc(C(N)=O)cc43)CC1)C(=O)CC(C)(C)O2` [Compound 24, 1-{1-[2-(7-methoxy-2,2-dimethyl-4-oxochroman-6-yl)ethyl]piperidin-4-yl}-1H-indole-6-carboxamide] belongs 0.3 mg/kg.

For the molecule `COc1ccc2c(c1CCN1CCC(n3ccc4ccc(C(N)=O)cc43)CC1)CCC2=O` [Compound 25, 1-{1-[2-(5-methoxy-1-oxoindan-4-yl)ethyl]piperidin-4-yl}-1H-indole-6-carboxamide], the ED50 came out at 0.1 mg/kg. With `COc1cc2c(cc1CCN1CCC(n3ccc4ccc(C(N)=O)cc43)CC1)C(=O)CC2` [Compound 26, 1-{1-[2-(6-methoxy-3-oxoindan-5-yl)ethyl]piperidin-4-yl}-1H-indole-6-carboxamide], the ED50 is 0.25 mg/kg. In the case of `COc1ccc2sc(C)nc2c1CCN1CCC(n2ccc3ccc(C(N)=O)cc32)CC1` [Compound 27, 1-{1-[2-(5-methoxy-2-methylbenzothiazol-4-yl)ethyl]piperidin-4-yl}-1H-indole-6-carboxamide], the ED50 is 0.42 mg/kg. On the same count and under the same terms, next, `COc1cc2nc(C)sc2cc1CCN1CCC(n2ccc3ccc(C(N)=O)cc32)CC1` [Compound 28, 1-{1-[2-(5-methoxy-2-methylbenzothiazol-6-yl)ethyl]piperidin-4-yl}-1H-indole-6-carboxamide]: 0.02 mg/kg; `COc1ccc2ncccc2c1CCN1CCC(n2ccc3ccc(C(N)=O)cc32)CC1` [Compound 30, 1-{1-[2-(6-methoxyquinolin-5-yl)ethyl]piperidin-4-yl}-1H-indole-6-carboxamide]: 0.62 mg/kg; `COc1cc2c(cc1CCN1CCC(n3ccc4ccc(C(N)=O)cc43)CC1)OCCO2` [Compound 31, 1-{1-[2-(7-methoxy-2,3-dihydrobenz[1,4]dioxin-6-yl)ethyl]piperidin-4-yl}-1H-indole-6-carboxamide]: 0.04 mg/kg. `COc1ccc2c(c1CCN1CCC(n3ccc4ccc(C(N)=O)cc43)CC1)OCCO2` [Compound 32, 1-{1-[2-(6-methoxy-2,3-dihydrobenz[1,4]dioxin-5-yl)ethyl]piperidin-4-yl}-1H-indole-6-carboxamide]: the ED50 was 0.04 mg/kg.

For `COc1cc2c(cc1CCN1CCC(n3ccc4ccc(C(N)=O)cc43)CC1)C(=O)N(C)CC2` [Compound 33, 1-{1-[2-(6-methoxy-2-methyl-1-oxo-1,2,3,4-tetrahydroisoquinolin-7-yl)ethyl]piperidin-4-yl}-1H-indole-6-carboxamide], the ED50 was 0.12 mg/kg.

In the case of `COc1ccc2c(c1CCN1CCC(n3ccc4ccc(C(N)=O)cc43)CC1)CCN(C)C2=O` [Compound 34, 1-(1-(2-(6-methoxy-2-methyl-1-oxo-1,2,3,4-tetrahydroisoquinolin-5-yl)ethyl)piperidin-4-yl)-1H-indole-6-carboxamide], the ED50 was determined as 0.37 mg/kg. Consider `COc1ccc2c(=O)ccoc2c1CCN1CCC(n2ccc3ccc(C(N)=O)cc32)CC1` [Compound 35, 1-{1-[2-(7-methoxy-4-oxo-4H-chromen-8-yl)ethyl]piperidin-4-yl}-1H-indole-6-carboxamide], for which the ED50 stood at 0.2 mg/kg. `COc1ccc2c(=O)c(C)c(C)oc2c1CCN1CCC(n2ccc3ccc(C(N)=O)cc32)CC1` [Compound 36, 1-{1-[2-(7-methoxy-2,3-dimethyl-4-oxo-4H-chromen-8-yl)ethyl]piperidin-4-yl}-1H-indole-6-carboxamide]: the ED50 came to 0.2 mg/kg. Regarding `CNC(=O)c1ccc2ccn(C3CCN(CCc4cc5c(cc4OC)CCN(C)C5=O)CC3)c2c1` [Compound 38, 1-{1-[2-(6-methoxy-2-methyl-1-oxo-1,2,3,4-tetrahydroisoquinolin-7-yl)ethyl]piperidin-4-yl}-N-methyl-1H-indole-6-carboxamide], the ED50 was 0.19 mg/kg. Same read-out and setting: to `COc1ccc2ccccc2c1CCN1CCC(n2ccc3ccc(C(N)=O)cc32)CC1` [Compound 44, 1-{1-[2-(2-methoxynaphthalen-1-yl)ethyl]piperidin-4-yl}-1H-indole-6-carboxamide] belongs 0.41 mg/kg; to `COc1cc2ccccc2cc1CCN1CCC(n2ccc3ccc(C(N)=O)cc32)CC1` [Compound 45, 1-{1-[2-(3-methoxynaphthalen-2-yl)ethyl]piperidin-4-yl}-1H-indole-6-carboxamide], 0.26 mg/kg.
